# Measurements: patent publication US11612601B1, “Targeting epidermal growth factor to treat vascular calcification” (THE FLORIDA INTERNATIONAL UNIVERSITY BOARD OF TRUSTEES, priority 2022, dated 2023)
# Experiments:
# [1] = system: Primary human coronary artery vascular smooth muscle cells; assay: VSMC osteogenic marker gene expression (qRT-PCR); assay type: cell-based; settings: OS + 2.5 μM vs OS, 14 days
# Procedure: Primary human coronary artery vascular smooth muscle cells, (VSMCs, ATCC, PCS-100-021) were cultured using vascular smooth muscle cell media and growth kit (ATCC, PCS-100-042). VSMCs (passage 4-6) were harvested using 0.05% trypsin-EDTA solution (Caisson Labs, TRL04) and seeded with a density of 26,320 cells.cm^-2 and incubated for 72 hours at 37° C., 5% CO2 with controlled humidity prior to treatment. […] OS media were supplemented with 10 mM β-glycerophosphate (Sigma, 13408-09-8), 0.1 mM L-ascorbic acid (Sigma, 113170-55-1), and 10 nM dexamethasone (Sigma, 50-02-2). To assess the role of EGFR inhibition, tyrphostin AG1478 (Millipore Sigma, T4182) was dissolved in vehicle (DMSO:Methanol, 1:1) and added to OS media to a final concentration of 2.5 μM. An equal volume of vehicle was added to the control and OS groups. […] On days 6, 13, 20, and 27 the media were replaced by an extracellular-vesicle-free (EV-free) media (ultracentrifuged for 15 hours at 100,000×g at 4° C. to remove background EVs common in the serum). After 24 hours, conditioned media were collected on days 7, 14, 21, and 28. […] To perform the quantitative real time polymerase chain reaction (qRT-PCR), Power SYBR Green RNA-to-CT 1-Step Kit (Applied Biosystems, 4391178) was used. […] The relative gene expression levels were calculated using comparative CT method, considering control groups as the reference. […]
# CKD mice [2] = assay: Aorta immunofluorescence and subcellular (cytosolic) fractionation in CKD mice; assay type: in vivo, mouse
# Procedure: 8-week-old wild type C57BL/6J mice (n=20, female) received the adenine-supplemented diet for 6 weeks to induce CKD, followed by two additional weeks of the diet containing 1.8% phosphate and 0.2% adenine to induce medial calcinosis. Mice were split into two groups (10 per group). The first group received daily tyrphostin AG1478 (10 mg/kg mouse), while the other group received vehicle (1% w/v, carboxymethylcellulose sodium salt). At study endpoint, the animals were euthanized, and the aortas were resected.
# A subcellular protein fractionation kit for tissue (Thermofisher, 87790) was used to isolate cellular cytosolic fraction from the resected aortas, using the manufacturer's protocol. Briefly, the tissues were minced and homogenized using a grinder. The samples were then incubated in a cytoplasmic extraction buffer for 10 min at 4° C., followed by centrifugation at 1000×g for 5 min. The supernatants yielded the cytosolic fraction. To obtain sufficient protein for analyses, two aortas were pooled per data point.
# VSMCs, osteoblasts, isolated EVs (either from cells or mouse aortas), and matrix vesicles (from osteoblasts) were lysed in RIPA lysis and extraction buffer supplemented with protease inhibitor. After adding Laemmli SDS-sample buffer (1:4 v/v, Boston BioProducts, BP-110R) to each lysate, the samples were denatured at 100° C. for 10 min, loaded into 7.5-12% 1-mm SDS-PAGE gel (15 to 20 μg protein per lane), and run at 170 V. The proteins were then transferred to Trans-Blot turbo nitrocellulose membranes (BIO-RAD, 1704158) at 25 V for 7 min.
# To quantify the total protein, the membranes were stained using 2% w/v Ponceau stain (Alfa Aesar, AAJ6074409) for 20 min, followed by one wash with 5% acetic acid and milliQ water for 5 min. After imaging, the intensity of each lane was measured in ImageJ for total protein normalization. Membranes were blocked with 5% w/v bovine serum albumin (HyClone, SH30574.01) in TBS-Tween (1×) for 1 hour. […] The protein bands were visualized with Odyssey CLx scanner (Li-Cor), and quantified using Image Studio Lite software (Li-Cor). […]
# CKD mice [3] = assay: Serum EGFR level and serum TNAP activity in CKD mice; assay type: in vivo, mouse; settings: 10 mg/kg daily, vs CKD
# Procedure: Along with this calcifying diet, a group of mice (n=19) received daily tyrphostin AG1478 (10 mg/kg mouse, Millipore Sigma, T4182) via oral gavage. The remaining mice (n=19) received vehicle treatment (1% w/v, carboxymethylcellulose sodium salt, Sigma, C5678). For non-diseased controls, a third group of mice (n=12, 6 per biological sex) were fed a regular chow diet and received the vehicle for the final two weeks. During the oral gavage, animals were partially anesthetized using isoflurane (1%, Patterson Veterinary, 07-893-1389, in 2 L.min^−1 oxygen flow). […] At study endpoint, mice were anesthetized with isoflurane (1%, in 2 L.min^−1 oxygen flow) followed by retro-orbital bleeding for blood collection. Mice were then immediately euthanized by laceration of the diaphragm before tissue collection. […] For mice serum TNAP activity, the samples were diluted 1:20 and assessment was performed according to the manufacturer's protocol.
# [4] = treated CKD animals compared to CKD group
smiles,measurement,setting,value
"COc1cc2ncnc(Nc3cccc(Cl)c3)c2cc1OC [AG1478, tyrphostin AG1478]",Gene expression of osteogenic marker ALPL in VSMCs,[1]; p=0.1,no significant differences
same,Gene expression of osteogenic marker RUNX2 in VSMCs,[1]; p=0.42,no significant differences
same,"CAV1, EGFR, and TNAP immunofluorescence in the aorta","CKD mice [2]; qualitative, CKD mice treated, compared to chow-fed controls",elevation of all three proteins
same,cytosolic CAV1 protein in aorta,CKD mice [2]; [4],higher
same,cytosolic TNAP protein in aorta,CKD mice [2]; [4],higher
same,serum TNAP activity,CKD mice [3]; p=0.06,did not significantly reduce
same,level of serum EGFR,CKD mice [3]; p=0.78,no significant difference
